Test results: PubChem BioAssay AID330 (DTP/NCI, 2004)
“And” between values parts separate entries of the source, which are not always exact repeats. Equal entries are not always repeated. Toxic doses and inconclusive results are not listed.

System: P388 leukemia ip, CD2F1 mice, survival T/C
Assay: NCI In Vivo Anticancer Drug Screen. Data for tumor model P388 Leukemia (intraperitoneal) in CD2F1 (CDF1) mice
Settings: higher = longer survival
How it was run: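 Mice carrying the transplanted tumor received test compound or vehicle. Survival was recorded in each group, and the value is the treated-group measurement divided by that of the vehicle-treated control group.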

[1] = endpoint: median survival time, dose: 50.0 mg/kg/injection, schedule: Q01DX005 (ip), vehicle: Klucel (hydroxypropylcellulose) (HPC)
[2] = endpoint: median survival time, dose: 100.0 mg/kg/injection, schedule: Q01DX005 (ip), vehicle: Klucel (hydroxypropylcellulose) (HPC)
[3] = endpoint: median survival time, dose: 200.0 mg/kg/injection, schedule: Q01DX005 (ip), vehicle: Klucel (hydroxypropylcellulose) (HPC)
[4] = endpoint: median survival time, dose: 60.0 mg/kg/injection, schedule: Q01DX005 (ip), vehicle: saline with Tween-80
[5] = endpoint: median survival time, dose: 120.0 mg/kg/injection, schedule: Q01DX005 (ip), vehicle: saline with Tween-80
[6] = endpoint: median survival time, dose: 240.0 mg/kg/injection, schedule: Q01DX005 (ip), vehicle: saline with Tween-80
[7] = endpoint: median survival time, dose: 50.0 mg/kg/injection, schedule: Q01DX009 (ip), vehicle: saline with Tween-80
[8] = endpoint: median survival time, dose: 100.0 mg/kg/injection, schedule: Q01DX009 (ip), vehicle: saline with Tween-80
[9] = endpoint: median survival time, dose: 200.0 mg/kg/injection, schedule: Q01DX009 (ip), vehicle: saline with Tween-80

## CCCOc1ccc(C(C)c2cc3c(cc2OC)OCO3)cc1 (stereo not given)
endpoint: median survival time, dose: 25.0 mg/kg/injection, schedule: Q01DX005 (ip), vehicle: Klucel (hydroxypropylcellulose) (HPC)
  T/C: 100 % of control
[1]
  T/C: 103 % of control
[2]
  T/C: 103 % of control
[3]
  T/C: 98 % of control

## C1=CCONC1
endpoint: median survival time, dose: 50.0 mg/kg/injection, schedule: Q04DX003 (ip), vehicle: saline
  T/C: 93 % of control
endpoint: median survival time, dose: 100.0 mg/kg/injection, schedule: Q04DX003 (ip), vehicle: saline
  T/C: 104 % of control
endpoint: median survival time, dose: 200.0 mg/kg/injection, schedule: Q04DX003 (ip), vehicle: saline
  T/C: 92 % of control

## NNS(=O)(=O)c1cc(C(=O)O)cc(C(=O)O)c1
endpoint: median survival time, dose: 100.0 mg/kg/injection, schedule: Q01DX001 (ip), vehicle: saline with Tween-80
  T/C: 109 % of control
endpoint: median survival time, dose: 200.0 mg/kg/injection, schedule: Q01DX001 (ip), vehicle: saline with Tween-80
  T/C: 100 % of control
endpoint: median survival time, dose: 400.0 mg/kg/injection, schedule: Q01DX001 (ip), vehicle: saline with Tween-80
  T/C: 90 % of control

## Oc1ccc(Br)cc1C(c1ccc2c(c1)OCO2)N1CCOCC1 (stereo not given)
[4]
  T/C: 100 % of control
[5]
  T/C: 101 % of control
[6]
  T/C: 102 % of control

## CCCCCCc1c(C#N)c(S)[nH]c(=S)c1C#N
endpoint: median survival time, dose: 12.5 mg/kg/injection, schedule: Q01DX009 (ip), vehicle: saline
  T/C: 95 % of control
endpoint: median survival time, dose: 25.0 mg/kg/injection, schedule: Q01DX009 (ip), vehicle: saline
  T/C: 106 % of control
endpoint: median survival time, dose: 50.0 mg/kg/injection, schedule: Q01DX009 (ip), vehicle: saline
  T/C: 106 % of control and 96 % of control

## CC(=O)C(/C=N\N=C(/C)c1cn[nH]c1C)=C(/C)O
endpoint: median survival time, dose: 60.0 mg/kg/injection, schedule: Q01DX005 (ip), vehicle: Klucel (hydroxypropylcellulose) (HPC)
  T/C: 96 % of control
endpoint: median survival time, dose: 120.0 mg/kg/injection, schedule: Q01DX005 (ip), vehicle: Klucel (hydroxypropylcellulose) (HPC)
  T/C: 92 % of control
endpoint: median survival time, dose: 240.0 mg/kg/injection, schedule: Q01DX005 (ip), vehicle: Klucel (hydroxypropylcellulose) (HPC)
  T/C: 89 % of control

## C/C(NCCc1ccccc1)=C1\CCOC1=O
endpoint: median survival time, dose: 50.0 mg/kg/injection, schedule: Q01DX001 (ip), vehicle: Klucel (hydroxypropylcellulose) (HPC)
  T/C: 101 % of control
endpoint: median survival time, dose: 100.0 mg/kg/injection, schedule: Q01DX001 (ip), vehicle: Klucel (hydroxypropylcellulose) (HPC)
  T/C: 96 % of control
endpoint: median survival time, dose: 200.0 mg/kg/injection, schedule: Q01DX001 (ip), vehicle: Klucel (hydroxypropylcellulose) (HPC)
  T/C: 104 % of control

## Cc1ccc(-c2cs/c(=N\N=C3/CSC(=O)N3Cc3ccccc3)n2-c2cccc(C)c2)cc1
endpoint: median survival time, dose: 100.0 mg/kg/injection, schedule: Q04DX002 (ip), vehicle: Klucel (hydroxypropylcellulose) (HPC)
  T/C: 89 % of control
endpoint: median survival time, dose: 200.0 mg/kg/injection, schedule: Q04DX002 (ip), vehicle: Klucel (hydroxypropylcellulose) (HPC)
  T/C: 89 % of control
endpoint: median survival time, dose: 400.0 mg/kg/injection, schedule: Q04DX002 (ip), vehicle: Klucel (hydroxypropylcellulose) (HPC)
  T/C: 91 % of control

## CC1(C)Oc2ccc3ccc(=O)oc3c2C(O)C1O (stereo not given)
[1]
  T/C: 97 % of control
[2]
  T/C: 96 % of control
[3]
  T/C: 92 % of control

## Cc1ccc(C(C(C)[N+](=O)[O-])C(C(=O)c2ccccc2)S(=O)(=O)c2ccccc2)cc1 (stereo not given)
[1]
  T/C: 93 % of control
[2]
  T/C: 106 % of control and 91 % of control
[3]
  T/C: 106 % of control and 89 % of control

## Clc1ccc2c(NCCCCCCNc3ccnc4cc(Cl)ccc34)ccnc2c1
endpoint: median survival time, dose: 6.25 mg/kg/injection, schedule: Q01DX005 (ip), vehicle: saline with Tween-80
  T/C: 97 % of control
endpoint: median survival time, dose: 12.5 mg/kg/injection, schedule: Q01DX005 (ip), vehicle: saline with Tween-80
  T/C: 90 % of control
endpoint: median survival time, dose: 25.0 mg/kg/injection, schedule: Q01DX005 (ip), vehicle: saline with Tween-80
  T/C: 99 % of control
endpoint: median survival time, dose: 50.0 mg/kg/injection, schedule: Q01DX005 (ip), vehicle: saline with Tween-80
  T/C: 100 % of control
endpoint: median survival time, dose: 100.0 mg/kg/injection, schedule: Q01DX005 (ip), vehicle: saline with Tween-80
  T/C: 109 % of control

## CC1(C)CC(=O)C2=C(C1)NC(=O)CC2
[4]
  T/C: 101 % of control
[5]
  T/C: 101 % of control
[6]
  T/C: 96 % of control

## ClCSc1nc2cc(Cl)ccc2s1
[7]
  T/C: 95 % of control
[8]
  T/C: 100 % of control
[9]
  T/C: 95 % of control

## COC(=O)C1=C(C(=O)OC)C2(C)NC1(C)c1c(C)ccc(C)c12
endpoint: median survival time, dose: 42.5 mg/kg/injection, schedule: Q01DX001 (ip), vehicle: saline with Tween-80
  T/C: 103 % of control
endpoint: median survival time, dose: 85.0 mg/kg/injection, schedule: Q01DX001 (ip), vehicle: saline with Tween-80
  T/C: 94 % of control
endpoint: median survival time, dose: 170.0 mg/kg/injection, schedule: Q01DX001 (ip), vehicle: saline with Tween-80
  T/C: 89 % of control

## CCOC(=O)/C(C#N)=C(\C)c1ccccc1
[7]
  T/C: 99 % of control

## NS(=O)(=O)c1c[n+]([O-])ccc1Cl
[7]
  T/C: 100 % of control
[8]
  T/C: 100 % of control
[9]
  T/C: 100 % of control

## CS(=O)(=O)OCCCN(CCCOS(C)(=O)=O)CCCN1CCOCC1
endpoint: mean survival time, dose: 20.0 mg/kg/injection, schedule: Q01DX009 (ip), vehicle: saline
  T/C: 247 % of control
endpoint: mean survival time, dose: 40.0 mg/kg/injection, schedule: Q01DX009 (ip), vehicle: saline
  T/C: 238 % of control
endpoint: mean survival time, dose: 60.0 mg/kg/injection, schedule: Q01DX009 (ip), vehicle: saline
  T/C: 263 % of control
endpoint: median survival time, dose: 20.0 mg/kg/injection, schedule: Q01DX009 (ip), vehicle: saline
  T/C: 227 % of control
endpoint: median survival time, dose: 40.0 mg/kg/injection, schedule: Q01DX009 (ip), vehicle: saline
  T/C: 222 % of control
endpoint: median survival time, dose: 60.0 mg/kg/injection, schedule: Q01DX009 (ip), vehicle: saline
  T/C: 254 % of control
